Reference: BigSolDB 2.1

FC(F)(F)c1cccnc1Cl
solubility (mole fraction)
Conditions	273.15 K	278.15 K	283.15 K	288.15 K	293.15 K	298.15 K	303.15 K
in dichloromethane	0.281	0.365	0.41	0.469	0.551	0.625	0.741
in ethanol	0.137	0.182	0.253	0.355	0.475	0.635	0.875
in n-heptane	0.037	0.0552	0.0887	0.14	0.222	0.36	0.556
in n-hexane	0.046	0.0733	0.118	0.199	0.336	0.488	0.762
in n-propanol	0.0727	0.0992	0.132	0.183	0.253	0.355	0.492
in toluene	0.35	0.413	0.491	0.569	0.653	0.724	0.862
